For one data set, the system named is [^3 H]-GABA uptake. Description: in vitro inhibition of [3H]-GABA uptake (method of Fjalland), rat cortical tissue homogenate. In kind it is biochemical, Male wistar rat. To be noted: 40 mM tris HCl buffer pH 7.5, 60 minutes at 30° C. How it is done:
Values for in vitro inhibition of [^3 H]-GABA uptake for the invention compounds were assessed essentially by the method of Fjalland (Acta Pharmacol. Toxicol. 1978, 42, 73-76). Male wistar rat cortical tissue was gently homogenized by hand using a glass/PTFE homogenizer in 10 volumes of 0.32M sucrose. Incubation was performed in a 40 mM tris HCl buffer (pH 7.5 at 30° C.) containing […], 4 mM MgSO4, […] and 10 mM glucose, for 60 minutes at 30° C. Values for inhibition of GABA uptake for some representative compounds are recorded in Table I.

In the next data set the test system is GABA uptake. Particulars: cited from earlier work; for oral activity as inhibitor of GABA uptake: Yunger et al., J.Pharm.Exp.Ther. 1984, 228, 109.
The conditions of data set [1]: background, in words; cited from earlier work.

Consider eleven molecules from patent US5604242A, “Heterocyclic chemistry” (Novo Nordisk A/S, priority 1993, dated 1997).

Molecules are shown by their SMILES. Counter-ions that a name gives are not always drawn.

For the molecule `O=C(O)C1CCCN(CCOCCCc2ccccc2)C1` (stereo not drawn) [Example 1, 1-(2-(3-Phenyl-1-propyloxy)ethyl)-3-piperidinecarboxylic acid hydrochloride], in data set [^3 H]-GABA uptake, the half-maximal inhibitory concentration (IC50) (usually the concentration at which inhibition is half-maximal) worked out at 4500 nM.

In the case of `O=C(O)[C@@H]1CCCN(CCOCc2ccccc2Cc2ccccc2)C1` [Example 2, (R)-1-(2-(2-Benzylbenzyloxy)ethyl)-3-piperidinecarboxylic acid hydrochloride], 325 nM corresponded to half-maximal inhibition in data set [^3 H]-GABA uptake (IC50).

`O=C(O)[C@@H]1CCCN(CCOCc2ccc3ccccc3c2-c2ccccc2)C1` [Example 3, (R)-1-(2-((1-Phenyl-2-naphthyl)methoxy)ethyl)-3-piperidinecarboxylic acid hydrochloride] had an IC50 in data set [^3 H]-GABA uptake of 6400 nM.

Consider `O=C(O)[C@@H]1CCCN(CCOCc2ccccc2-c2ccccc2)C1` [Example 4, (R)-1-(2-(2-Phenylbenzyloxy)ethyl)-3-piperidinecarboxylic acid hydrochloride], for which the IC50 in data set [^3 H]-GABA uptake stood at 338 nM. On the same count and under the same terms, under `O=C(O)[C@@H]1CCCN(CCOC/C(=C/c2ccccc2)c2ccccc2)C1` [Example 5, E-(R)-1-(2-((2,3-Diphenyl-2-propen-1-yl)oxy)ethyl)-3-piperidinecarboxylic acid hydrochloride] stands 495 nM.

Molecule `O=C(O)[C@@H]1CCCN(CCOC/C(=C\c2ccccc2)c2ccccc2)C1` [Example 6, Z-(R)-1-(2-((2,3-Diphenyl-2-propen-1-yl)oxy)ethyl)-3-piperidinecarboxylic acid hydrochloride] registered a concentration for half-maximal inhibition (IC50) in data set [^3 H]-GABA uptake of 2000 nM.

As for `O=C(O)C1CCCN(CCC=C(c2ccccc2)c2ccccc2)C1` (stereo not drawn) [SK&F 89976A, N-(4,4-diphenyl-3-buten-1-yl)nipecotic acid], the “oral activity as inhibitor of GABA uptake” value (shortened to “oral activity as inhibitor”) in the data set on GABA uptake is recorded as “orally active inhibitors of GABA uptake”.

On to `O=C(O)C1=CCCN(CCC=C(c2ccccc2)c2ccccc2)C1` [SK&F 100330A, N-(4,4-diphenyl-3-buten-1-yl)guvacine], for which, in the data set with GABA uptake, the “oral activity as inhibitor” value is on record as “orally active inhibitors of GABA uptake”. As to `O=C(O)CC1CCN(CCC=C(c2ccccc2)c2ccccc2)C1` (stereo not drawn) [SK&F 100561, N-(4,4-diphenyl-3-buten-1-yl)-homo-β-proline], the “oral activity as inhibitor” value with GABA uptake is “orally active inhibitors of GABA uptake”. In the case of `O=C(O)C1CCCN(CCC=C(c2ccccc2)c2cccs2)C1` (stereo not drawn) [SK&F 100604J, N-(4-phenyl-4-(2-thienyl)-3-buten-1-yl)nipecotic acid], the “oral activity as inhibitor” value with GABA uptake is “orally active inhibitors of GABA uptake”. In the case of `O=C(O)C1CCCNC1` (stereo not drawn) [nipecotic acid, 3-piperidinecarboxylic acid], the “inhibition of GABA uptake from the synaptic cleft into presynaptic nerve terminals and glial cells” value in the data set with GABA uptake (background, in words) is “well-known and potent inhibitor of GABA uptake”. Further, the “ability to cross the blood-brain barrier” value in data set [1] is listed as “unable to cross the blood-brain barrier”.
